# Several values for one entry are separate records, joined by “and”; a condition that tells them apart may be missing. Identical values can stand only once. Like-named read-outs stand apart in the source and are kept apart here.
# Experiments:
# CgBdf1 BD1 = CgBdf1 BD1 (Candida glabrata, UniProt Q6FWV7); assay: HTRF assay, inhibition of H4ac4 peptide binding; design: species or system C. glabrata; settings: for %HTRF Signal Cg Bdf1 BD1: 240 min
# CgBdf1 BD2 = CgBdf1 BD2 (Candida glabrata, UniProt Q6FWV7); assay: biochemical; type: binding, C. glabrata
# Sequence of CgBdf1 BD2 (Q6FWV7 entry or part of it): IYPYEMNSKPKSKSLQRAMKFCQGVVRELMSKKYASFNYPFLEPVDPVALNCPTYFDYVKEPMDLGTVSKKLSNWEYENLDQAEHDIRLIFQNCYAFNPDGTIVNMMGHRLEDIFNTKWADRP
# human Brd4 BD1 = human Brd4 BD1 (Homo sapiens, UniProt O60885); assay: HTRF assay, inhibition of H4ac4 peptide binding; settings: for %HTRF Signal hBrd4 BD1: Fig 2E
# Bdf1/Swc4 = biological target: T1, Bdf1/Swc4 (Saccharomyces cerevisiae, UniProt P35817); assay: NanoBiT assay, control pair; type: cell-based, S. cerevisiae; design: remaining activity: dose or concentration left out as unconfirmed
# T1 construct: expressed in transfected cells; host or cells: S. cerevisiae
# T1 sequence (P35817 whole entry): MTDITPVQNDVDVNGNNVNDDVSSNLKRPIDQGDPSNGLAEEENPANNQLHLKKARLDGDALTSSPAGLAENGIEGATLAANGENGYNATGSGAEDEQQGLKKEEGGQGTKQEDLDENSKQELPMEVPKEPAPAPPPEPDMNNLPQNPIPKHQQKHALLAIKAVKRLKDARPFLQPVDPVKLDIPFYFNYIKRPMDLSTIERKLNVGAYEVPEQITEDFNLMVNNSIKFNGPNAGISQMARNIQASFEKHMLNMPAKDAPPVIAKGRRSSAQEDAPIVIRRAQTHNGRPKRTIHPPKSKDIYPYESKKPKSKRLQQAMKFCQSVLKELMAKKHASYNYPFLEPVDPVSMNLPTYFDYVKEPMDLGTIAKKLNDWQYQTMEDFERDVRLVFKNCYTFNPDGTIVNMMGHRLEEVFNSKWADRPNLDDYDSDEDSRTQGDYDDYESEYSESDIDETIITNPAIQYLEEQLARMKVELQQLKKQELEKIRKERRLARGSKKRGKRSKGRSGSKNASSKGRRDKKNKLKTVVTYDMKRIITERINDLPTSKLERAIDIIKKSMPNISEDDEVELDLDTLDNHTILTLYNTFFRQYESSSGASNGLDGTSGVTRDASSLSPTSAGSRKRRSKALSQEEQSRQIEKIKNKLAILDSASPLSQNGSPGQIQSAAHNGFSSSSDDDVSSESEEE
# T1 sequence (P53201 whole entry, further chain): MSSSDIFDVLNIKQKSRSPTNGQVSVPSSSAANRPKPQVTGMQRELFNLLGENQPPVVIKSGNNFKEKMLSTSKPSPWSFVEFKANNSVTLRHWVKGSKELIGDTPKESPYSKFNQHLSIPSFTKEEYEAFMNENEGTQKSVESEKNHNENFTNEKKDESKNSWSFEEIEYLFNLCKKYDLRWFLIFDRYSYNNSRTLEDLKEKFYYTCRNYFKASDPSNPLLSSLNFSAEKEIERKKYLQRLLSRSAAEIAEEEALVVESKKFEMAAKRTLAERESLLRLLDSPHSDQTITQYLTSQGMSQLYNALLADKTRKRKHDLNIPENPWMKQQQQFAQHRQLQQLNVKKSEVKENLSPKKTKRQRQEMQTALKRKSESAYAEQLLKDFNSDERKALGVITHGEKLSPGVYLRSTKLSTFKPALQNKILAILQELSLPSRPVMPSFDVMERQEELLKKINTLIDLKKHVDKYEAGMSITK
# Method: (§1) Yeast strains were distributed in 96‐well microplates containing SC(MSG)‐U medium (SC‐U medium with 0.1% monosodium glutamate instead of ammonium sulfate as a nitrogen source) and grown at 30 °C. 40 µL of exponentially growing cells were transferred in white 96‐well half‐area microplates (ProxiPlate Plus, Greiner Bio‐One) previously filled with 40 µL per well of SC(MSG) containing 100 µM furimazine. The microplates were then incubated for 10 min in the dark before the luminescence signals were recorded using a microplate reader (Ensight, PerkinElmer). Luminescence measurements were performed for 1 s per well at a distance of 0.1 mm between the plate and the detector. The luminescence values were normalized with the optical density (OD600) of the corresponding cultures. For NanoBiT assays with BET inhibitors, yeast cultures were grown overnight at 30 °C in SC(MSG) medium in the presence of serial dilutions of 24c and I‐BET726. Overnight cultures were diluted 5 fold in SC(MSG) and incubated for 1 h before luminescence was recorded as previously indicated. Luminescence values for each condition were normalized using the average of the luminescence recorded for the Bdf1/Swc4 and Bmh1/Bmh2 controls.
# Bmh1/Bmh2 = assay: NanoBiT assay, control pair; type: cell-based, S. cerevisiae; design: Normalized nanoBiT signal: unit of the concentration uncertain; settings: for Normalized nanoBiT signal: Bmh1-LgBiT, Bmh2-SmBiT, Fig 4C
# Method: as §1
# HeLa cells = settings: highest concentration tested (300 µM); 24 h
# Method: (§2) Cytotoxicity assays were performed as described^[ [1] ^] with minor changes. Proliferation of human cells was assessed using an MTT colorimetric assay (Cell Proliferation Kit I, Roche). HeLa (epithelial cells, ATCC number CCL‐2) and IMR90 (primary fibroblasts cells, ATCC number CCL‐186) cells were cultured in humidified atmosphere (37 °C and 5% CO2) in DMEM medium containing 10% heat inactivated fetal calf serum and 2 mM glutamine. […] Plates were incubated at 37 °C and 5% CO2 for 24 h before adding 10 mL of MTT labelling reagent (final concentration 0.5 mg mL^−1) to each well. After incubating for a further 4 h, 100 µL of the solubilization solution were added in each well. Plates were allowed to stand overnight in the incubator before measuring the absorbance at 570 nm and at 690 nm in a ClarioStar plate reader. The values of A570–A690 nm were normalized relative to that obtained with vehicle (0.2% DMSO, 0.8% ethanol) and plotted against compound concentration.
# [1] = system: IMR90 (primary fibroblast) cells; settings: highest concentration tested (300 µM); 24 h
# Method: as §2
# Sequence of CgBdf1 BD1 (Q6FWV7 entry or part of it): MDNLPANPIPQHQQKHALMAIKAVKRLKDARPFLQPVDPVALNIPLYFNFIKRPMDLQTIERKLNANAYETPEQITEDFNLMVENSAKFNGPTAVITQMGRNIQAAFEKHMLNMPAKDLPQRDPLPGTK
structure (smiles),measurement,setting,value
"Cc1ccc(-c2nnc(C)c(NCc3ccc(C)o3)n2)cc1 [Compound 24c, 6‐methyl‐N‐((5‐methylfuran‐2‐yl)methyl)‐3‐(p‐tolyl)‐1,2,4‐triazin‐5‐amine]",activity at 0.002 µM,"CgBdf1 BD1; 4 h, Fig 2E, 0.002 microM, read-out: %HTRF Signal Cg Bdf1 BD1",102%
same,activity at 0.005 µM,"CgBdf1 BD1; 4 h, Fig 2E, 0.005 microM, read-out: %HTRF Signal Cg Bdf1 BD1",97.9%
same,activity at 0.013 µM,"CgBdf1 BD1; 4 h, Fig 2E, 0.013 microM, read-out: %HTRF Signal Cg Bdf1 BD1",101%
same,activity at 0.033 µM,"CgBdf1 BD1; 4 h, Fig 2E, 0.033 microM, read-out: %HTRF Signal Cg Bdf1 BD1",96.4%
same,activity at 0.082 µM,"CgBdf1 BD1; 4 h, Fig 2E, 0.082 microM, read-out: %HTRF Signal Cg Bdf1 BD1",98%
same,activity at 0.205 µM,"CgBdf1 BD1; 4 h, Fig 2E, 0.205 microM, read-out: %HTRF Signal Cg Bdf1 BD1",97.5%
same,activity at 0.512 µM,"CgBdf1 BD1; 4 h, Fig 2E, 0.512 microM, read-out: %HTRF Signal Cg Bdf1 BD1",94.4%
same,activity at 1.28 µM,"CgBdf1 BD1; 4 h, Fig 2E, 1.280 microM, read-out: %HTRF Signal Cg Bdf1 BD1",88.7%
same,activity at 3.2 µM,"CgBdf1 BD1; 4 h, Fig 2E, 3.200 microM, read-out: %HTRF Signal Cg Bdf1 BD1",75%
same,activity at 8 µM,"CgBdf1 BD1; 4 h, Fig 2E, 8.000 microM, read-out: %HTRF Signal Cg Bdf1 BD1",48.9%
same,activity at 20 µM,"CgBdf1 BD1; 4 h, Fig 2E, 20.000 microM, read-out: %HTRF Signal Cg Bdf1 BD1",25.2%
same,IC50,"CgBdf1 BD1; Fig 2C original data, analogs of 24, single experiments Exp1-3, read-out: pIC50 CgBD1 (converted)",8.28 µM and 7.31 µM and 9.27 µM
same,%HTRF Signal Cg Bdf1 BD1,"CgBdf1 BD1; Fig 2E, 0.002 microM",102.33% and 103.65%
same,%HTRF Signal Cg Bdf1 BD1,"CgBdf1 BD1; Fig 2E, 0.005 microM",104.91% and 102.28%
same,%HTRF Signal Cg Bdf1 BD1,"CgBdf1 BD1; Fig 2E, 0.013 microM",100.44% and 101.24%
same,%HTRF Signal Cg Bdf1 BD1,"CgBdf1 BD1; Fig 2E, 0.033 microM",102.26% and 102.17%
same,%HTRF Signal Cg Bdf1 BD1,"CgBdf1 BD1; Fig 2E, 0.082 microM",100.01% and 99.64%
same,%HTRF Signal Cg Bdf1 BD1,"CgBdf1 BD1; Fig 2E, 0.205 microM",100.01% and 98.57%
same,%HTRF Signal Cg Bdf1 BD1,"CgBdf1 BD1; Fig 2E, 0.512 microM",94.98% and 94.31%
same,%HTRF Signal Cg Bdf1 BD1,"CgBdf1 BD1; Fig 2E, 1.280 microM, 1.28 µM",89.76% and 89.41%
same,%HTRF Signal Cg Bdf1 BD1,"CgBdf1 BD1; Fig 2E, 3.200 microM, 3.2 µM",77.27% and 82.10%
same,%HTRF Signal Cg Bdf1 BD1,"CgBdf1 BD1; Fig 2E, 8.000 microM",45.31% and 53.86%
same,%HTRF Signal Cg Bdf1 BD1,"CgBdf1 BD1; Fig 2E, 20.000 microM",17.43% and 18.98%
same,IC50,"CgBdf1 BD1; Fig 2E, mean and s.d., three independent experiments, read-out: IC50 (μM) CgBD1",8.28 µM and 8 µM
same,fold drop in CgBD1 inhibition,"CgBdf1 BD1; relative to 24, thiophenyl replaced by furyl or methylfuryl",4 fold
same,activity at 0.002 µM,"CgBdf1 BD2; 24 h, Fig 2E, 0.002 microM, read-out: %HTRF Signal CgBdf1 BD2",108%
same,activity at 0.005 µM,"CgBdf1 BD2; 24 h, Fig 2E, 0.005 microM, read-out: %HTRF Signal CgBdf1 BD2",102%
same,activity at 0.013 µM,"CgBdf1 BD2; 24 h, Fig 2E, 0.013 microM, read-out: %HTRF Signal CgBdf1 BD2",118%
same,activity at 0.033 µM,"CgBdf1 BD2; 24 h, Fig 2E, 0.033 microM, read-out: %HTRF Signal CgBdf1 BD2",109%
same,activity at 0.082 µM,"CgBdf1 BD2; 24 h, Fig 2E, 0.082 microM, read-out: %HTRF Signal CgBdf1 BD2",99.8%
same,activity at 0.205 µM,"CgBdf1 BD2; 24 h, Fig 2E, 0.205 microM, read-out: %HTRF Signal CgBdf1 BD2",104%
same,activity at 0.512 µM,"CgBdf1 BD2; 24 h, Fig 2E, 0.512 microM, read-out: %HTRF Signal CgBdf1 BD2",101%
same,activity at 1.28 µM,"CgBdf1 BD2; 24 h, Fig 2E, 1.280 microM, read-out: %HTRF Signal CgBdf1 BD2",93.8%
same,activity at 3.2 µM,"CgBdf1 BD2; 24 h, Fig 2E, 3.200 microM, read-out: %HTRF Signal CgBdf1 BD2",83.5%
same,activity at 8 µM,"CgBdf1 BD2; 24 h, Fig 2E, 8.000 microM, read-out: %HTRF Signal CgBdf1 BD2",60.2%
same,IC50,"CgBdf1 BD2; Fig 2C original data, analogs of 24, single experiments Exp1-3, read-out: pIC50 CgBD2 (converted)",13.9 µM and 12 µM and 9.53 µM
same,IC50,"CgBdf1 BD2; Fig 2E, mean and s.d., three independent experiments, read-out: IC50 (μM) CgBD2",11.8 µM and 12 µM
same,IC50,human Brd4 BD1,> 20 µM
same,%HTRF Signal hBrd4 BD1,human Brd4 BD1; 0.002 microM,99.94% and 101.82% and 96.40%
same,%HTRF Signal hBrd4 BD1,human Brd4 BD1; 0.005 microM,98.75% and 96.86% and 103.69%
same,%HTRF Signal hBrd4 BD1,human Brd4 BD1; 0.013 microM,99.02% and 101.98% and 101.10%
same,%HTRF Signal hBrd4 BD1,human Brd4 BD1; 0.033 microM,102.19% and 101.25% and 104.58%
same,%HTRF Signal hBrd4 BD1,human Brd4 BD1; 0.082 microM,100.31% and 103.86% and 103.22%
same,%HTRF Signal hBrd4 BD1,human Brd4 BD1; 0.205 microM,99.94% and 102.50% and 103.66%
same,%HTRF Signal hBrd4 BD1,human Brd4 BD1; 0.512 microM,100.22% and 100.80% and 103.20%
same,%HTRF Signal hBrd4 BD1,human Brd4 BD1; 1.280 microM,99.57% and 100.99% and 103.81%
same,%HTRF Signal hBrd4 BD1,human Brd4 BD1; 3.200 microM,98.88% and 63.27% and 99.81%
same,%HTRF Signal hBrd4 BD1,human Brd4 BD1; 8.000 microM,95.80% and 101.11% and 96.69%
same,%HTRF Signal hBrd4 BD1,human Brd4 BD1; 20.000 microM,84.01% and 92.12% and 87.26%
same,remaining activity at 195.3 µM,"Bdf1/Swc4; Bdf1-SmBiT, Swc4-LgBiT, 0.1953 mM, Fig 4C, read-out: Normalized nanoBiT signal",93%
same,remaining activity at 390.6 µM,"Bdf1/Swc4; Bdf1-SmBiT, Swc4-LgBiT, 0.3906 mM, Fig 4C, read-out: Normalized nanoBiT signal",104%
same,remaining activity at 781.3 µM,"Bdf1/Swc4; Bdf1-SmBiT, Swc4-LgBiT, 0.7813 mM, Fig 4C, read-out: Normalized nanoBiT signal",108%
same,remaining activity at 1562.5 µM,"Bdf1/Swc4; Bdf1-SmBiT, Swc4-LgBiT, 1.5625 mM, Fig 4C, read-out: Normalized nanoBiT signal",100%
same,remaining activity at 3125 µM,"Bdf1/Swc4; Bdf1-SmBiT, Swc4-LgBiT, 3.1250 mM, Fig 4C, read-out: Normalized nanoBiT signal",101%
same,remaining activity,"Bdf1/Swc4; Bdf1-SmBiT, Swc4-LgBiT, […], Fig 4C, read-out: Normalized nanoBiT signal",96%
same,"inhibition of NanoBiT signal, Bdf1/Swc4",Bdf1/Swc4; control pair independent of Bdf1 BDs,not observed
same,Normalized nanoBiT signal,Bmh1/Bmh2; 0.1953 (unit uncertain),107% and 92% and 96% and 99%
same,Normalized nanoBiT signal,Bmh1/Bmh2; 0.3906 (unit uncertain),88% and 99% and 103%
same,Normalized nanoBiT signal,Bmh1/Bmh2; 0.7813 (unit uncertain),86% and 104% and 98% and 103%
same,Normalized nanoBiT signal,Bmh1/Bmh2; 1.5625 (unit uncertain),100% and 97% and 101%
same,Normalized nanoBiT signal,Bmh1/Bmh2; 3.1250 (unit uncertain),93% and 97% (2×) and 103%
same,Normalized nanoBiT signal,Bmh1/Bmh2; 50.0000 (unit uncertain),79% and 98% and 101% and 93%
same,Normalized nanoBiT signal,Bmh1/Bmh2; 100.0000 (unit uncertain),95% and 97% and 100% and 88%
same,"inhibition of NanoBiT signal, Bmh1/Bmh2",Bmh1/Bmh2; unrelated control pair,not observed
same,cytotoxicity toward HeLa cells (MTT),HeLa cells,modest cytotoxicity
same,cytotoxicity toward IMR90 cells (MTT),[1],modest cytotoxicity
